In US20070027067A1, “Transition-state Inhibitors of Pin1, alpha-Ketoamide-containing peptidomimetics, and synthesis thereof” (priority 2005, published 2007):

Test: stability of the product in solution
Format: physicochemical
Conditions: CDCl3 solution, after 2 days; decomposition product appears to be a cyclic dimer (bis-lactone)
Source text: The compound 7 characterized by MS was obtained in 30% yield. […] The decomposition product appears to be a cyclic dimer (bis-lactone) of 7. [drawing 8] [drawing 9]

stability in solution (decomposition): totally decomposed
SMILES: O=C(N[C@@H](CO)C(=O)C(=O)N1CCC[C@H]1C(=O)O)OCC1c2ccccc2-c2ccccc21 [Compound 7]
